Data as given in ChEMBL document CHEMBL1137331 (J Med Chem, 2006).

How the values were obtained:
[1] = target: Tyrosine-protein kinase Lck (Homo sapiens, UniProt P06239)
Description: Inhibition of human Lck in presence of ATP

T-cell = experiment: Inhibition of anti CD3/anti CD28-induced T cell proliferation; assay type: functional, cell-based; details: Homo sapiens
[2] = target: Proto-oncogene tyrosine-protein kinase LCK (Mus musculus, UniProt P06240)
Description: Inhibition of murine Lck in presence of ATP

[3] = target: Proto-oncogene tyrosine-protein kinase LCK (Mus musculus) (UniProt P06240); details: 50 uM
Proto-oncogene tyrosine-protein kinase LCK (Mus musculus), sequence (P06240 2-509 limits assumed): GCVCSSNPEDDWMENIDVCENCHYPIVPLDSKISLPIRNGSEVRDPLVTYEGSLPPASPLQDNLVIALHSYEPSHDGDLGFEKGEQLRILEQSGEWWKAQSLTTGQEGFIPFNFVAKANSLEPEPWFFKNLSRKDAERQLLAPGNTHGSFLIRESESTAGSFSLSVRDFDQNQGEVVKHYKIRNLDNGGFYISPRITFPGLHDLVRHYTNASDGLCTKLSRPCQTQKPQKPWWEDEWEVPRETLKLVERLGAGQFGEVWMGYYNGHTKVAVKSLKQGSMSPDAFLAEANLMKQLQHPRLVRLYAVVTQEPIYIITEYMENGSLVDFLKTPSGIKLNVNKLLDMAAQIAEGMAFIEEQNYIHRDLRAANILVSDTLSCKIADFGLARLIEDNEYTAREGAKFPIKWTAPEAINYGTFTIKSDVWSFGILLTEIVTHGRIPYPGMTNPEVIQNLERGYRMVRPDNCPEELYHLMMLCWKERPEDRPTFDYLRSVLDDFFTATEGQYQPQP
Description: Inhibition of murine Lck at 50 uM

[4] = target: Tyrosine-protein kinase Yes (Homo sapiens, UniProt P07947); experiment: Inhibition of Yes
Tyrosine-protein kinase Yes, sequence (P07947 whole entry): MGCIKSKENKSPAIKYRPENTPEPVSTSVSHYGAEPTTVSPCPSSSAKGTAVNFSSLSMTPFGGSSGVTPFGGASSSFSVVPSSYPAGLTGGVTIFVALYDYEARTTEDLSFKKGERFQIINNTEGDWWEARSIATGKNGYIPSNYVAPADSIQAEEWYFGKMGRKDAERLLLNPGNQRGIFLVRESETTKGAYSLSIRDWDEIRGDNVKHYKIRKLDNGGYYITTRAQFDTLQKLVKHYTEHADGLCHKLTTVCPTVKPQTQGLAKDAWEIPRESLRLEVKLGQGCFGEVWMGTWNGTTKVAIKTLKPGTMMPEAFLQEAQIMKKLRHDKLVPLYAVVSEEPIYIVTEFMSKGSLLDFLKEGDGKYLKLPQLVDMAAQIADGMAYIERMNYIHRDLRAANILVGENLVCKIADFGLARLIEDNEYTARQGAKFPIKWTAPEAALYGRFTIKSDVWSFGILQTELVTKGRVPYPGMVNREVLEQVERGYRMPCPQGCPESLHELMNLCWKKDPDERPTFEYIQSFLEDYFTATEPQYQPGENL

[5] = target: Proto-oncogene tyrosine-protein kinase Src (Homo sapiens, UniProt P12931); experiment: Inhibition of Src in presence of ATP
Proto-oncogene tyrosine-protein kinase Src, sequence (P12931 2-536 limits assumed): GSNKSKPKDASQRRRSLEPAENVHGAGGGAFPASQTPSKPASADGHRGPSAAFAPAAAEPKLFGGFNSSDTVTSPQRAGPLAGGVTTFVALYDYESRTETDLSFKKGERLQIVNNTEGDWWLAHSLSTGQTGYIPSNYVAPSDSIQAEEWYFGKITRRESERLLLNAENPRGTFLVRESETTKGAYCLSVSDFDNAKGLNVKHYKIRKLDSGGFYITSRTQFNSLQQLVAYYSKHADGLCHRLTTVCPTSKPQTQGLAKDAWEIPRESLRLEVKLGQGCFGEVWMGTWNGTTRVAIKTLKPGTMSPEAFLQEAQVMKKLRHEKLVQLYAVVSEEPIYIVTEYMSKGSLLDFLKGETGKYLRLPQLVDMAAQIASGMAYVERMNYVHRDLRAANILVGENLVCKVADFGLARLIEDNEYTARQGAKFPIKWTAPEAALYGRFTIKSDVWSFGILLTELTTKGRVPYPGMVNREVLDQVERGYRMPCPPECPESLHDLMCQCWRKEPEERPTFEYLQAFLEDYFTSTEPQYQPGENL

Mus musculus [6] = experiment: Inhibition of LPS-induced TNFalpha production in C57BL/6 mouse at 60 mg/kg, po; details: C57BL/6, po
[7] = target: Tyrosine-protein kinase Fgr (Homo sapiens, UniProt P09769); experiment: Inhibition of Fgr
Tyrosine-protein kinase Fgr, sequence (P09769 whole entry): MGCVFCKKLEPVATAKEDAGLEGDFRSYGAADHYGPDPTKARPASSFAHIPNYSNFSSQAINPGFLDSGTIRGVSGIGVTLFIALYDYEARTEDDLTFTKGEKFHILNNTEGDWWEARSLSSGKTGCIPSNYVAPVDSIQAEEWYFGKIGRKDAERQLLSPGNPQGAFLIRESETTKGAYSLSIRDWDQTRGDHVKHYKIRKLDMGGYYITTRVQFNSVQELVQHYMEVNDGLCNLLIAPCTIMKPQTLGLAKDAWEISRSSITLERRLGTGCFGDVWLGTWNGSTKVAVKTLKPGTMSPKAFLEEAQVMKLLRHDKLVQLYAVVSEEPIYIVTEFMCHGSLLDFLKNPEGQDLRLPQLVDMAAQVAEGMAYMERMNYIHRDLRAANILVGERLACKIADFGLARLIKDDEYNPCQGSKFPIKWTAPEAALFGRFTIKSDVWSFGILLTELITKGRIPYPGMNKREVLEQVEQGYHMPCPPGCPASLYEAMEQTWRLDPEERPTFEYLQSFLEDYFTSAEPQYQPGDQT

[8] = target: Tyrosine-protein kinase Lyn (Homo sapiens, UniProt P07948); experiment: Inhibition of Lyn
Tyrosine-protein kinase Lyn, sequence (P07948 whole entry): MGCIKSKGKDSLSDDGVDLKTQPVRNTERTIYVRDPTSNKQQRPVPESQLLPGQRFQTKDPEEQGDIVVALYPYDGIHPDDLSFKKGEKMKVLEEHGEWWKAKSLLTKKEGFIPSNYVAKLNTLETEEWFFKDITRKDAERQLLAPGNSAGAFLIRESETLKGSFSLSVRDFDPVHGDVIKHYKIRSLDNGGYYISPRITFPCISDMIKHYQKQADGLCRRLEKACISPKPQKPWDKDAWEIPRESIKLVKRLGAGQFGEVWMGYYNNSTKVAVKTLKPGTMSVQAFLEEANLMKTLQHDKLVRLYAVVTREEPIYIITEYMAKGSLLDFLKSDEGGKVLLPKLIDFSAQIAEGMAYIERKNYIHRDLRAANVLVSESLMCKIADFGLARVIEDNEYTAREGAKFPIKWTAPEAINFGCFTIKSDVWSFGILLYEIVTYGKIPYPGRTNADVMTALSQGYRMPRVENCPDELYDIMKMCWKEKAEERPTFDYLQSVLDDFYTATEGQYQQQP

Mus musculus [9] = experiment: Inhibition of anti CD3/anti CD28-induced IL2 production in po dosed BALB/c mouse; assay type: functional
[10] = target: Receptor tyrosine-protein kinase erbB-2 (Homo sapiens, UniProt P04626); experiment: Inhibition of Her2
PBMC = experiment: Inhibition of LPS-induced TNFalpha production in human PBMC; assay type: functional, cell-based
Rattus norvegicus = experiment: Volume of distribution in rat at 10 mg/kg, iv and po; assay type: ADME, organism-based; set-up: dose 10 mg/kg, route oral; details: in vivo
[11] = target: Fibroblast growth factor receptor 1 (Homo sapiens, UniProt P11362); experiment: Inhibition of FGFR1
Fibroblast growth factor receptor 1, sequence (P11362 whole entry): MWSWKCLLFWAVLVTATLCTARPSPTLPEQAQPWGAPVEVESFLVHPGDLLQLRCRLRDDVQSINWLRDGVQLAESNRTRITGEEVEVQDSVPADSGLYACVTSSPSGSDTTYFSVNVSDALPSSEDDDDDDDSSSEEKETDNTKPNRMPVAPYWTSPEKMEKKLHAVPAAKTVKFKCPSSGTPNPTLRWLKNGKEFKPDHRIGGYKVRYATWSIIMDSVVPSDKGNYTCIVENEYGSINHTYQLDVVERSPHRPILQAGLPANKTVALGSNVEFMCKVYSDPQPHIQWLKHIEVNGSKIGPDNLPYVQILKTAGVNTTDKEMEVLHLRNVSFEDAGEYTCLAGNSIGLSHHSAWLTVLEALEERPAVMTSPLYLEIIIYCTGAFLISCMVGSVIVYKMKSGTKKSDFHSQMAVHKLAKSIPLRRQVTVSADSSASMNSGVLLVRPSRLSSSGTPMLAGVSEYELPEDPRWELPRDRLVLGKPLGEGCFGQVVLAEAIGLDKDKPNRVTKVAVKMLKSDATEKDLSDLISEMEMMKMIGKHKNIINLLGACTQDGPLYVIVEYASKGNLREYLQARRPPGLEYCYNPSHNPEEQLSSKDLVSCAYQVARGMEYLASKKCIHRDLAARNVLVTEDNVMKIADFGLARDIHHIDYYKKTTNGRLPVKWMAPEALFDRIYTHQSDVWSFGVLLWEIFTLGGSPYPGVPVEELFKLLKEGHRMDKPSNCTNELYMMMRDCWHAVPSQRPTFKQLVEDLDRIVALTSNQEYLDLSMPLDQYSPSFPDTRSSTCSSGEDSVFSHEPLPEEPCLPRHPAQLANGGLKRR

Proto-oncogene tyrosine-protein kinase LCK, sequence (P06240 whole entry): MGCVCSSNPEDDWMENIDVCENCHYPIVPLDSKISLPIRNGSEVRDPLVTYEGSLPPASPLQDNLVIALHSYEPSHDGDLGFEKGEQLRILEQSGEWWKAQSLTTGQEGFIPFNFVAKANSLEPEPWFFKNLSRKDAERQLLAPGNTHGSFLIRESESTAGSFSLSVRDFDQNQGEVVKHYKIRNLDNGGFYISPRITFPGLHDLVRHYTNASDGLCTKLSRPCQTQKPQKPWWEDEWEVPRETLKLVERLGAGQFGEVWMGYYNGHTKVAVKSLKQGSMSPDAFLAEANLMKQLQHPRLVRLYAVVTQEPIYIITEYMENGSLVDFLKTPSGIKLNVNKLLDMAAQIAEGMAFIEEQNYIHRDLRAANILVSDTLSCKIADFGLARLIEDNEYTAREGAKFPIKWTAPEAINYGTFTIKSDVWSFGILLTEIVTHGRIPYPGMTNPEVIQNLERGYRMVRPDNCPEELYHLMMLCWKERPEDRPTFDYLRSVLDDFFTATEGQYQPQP
Tyrosine-protein kinase Lck, sequence (P06239 whole entry): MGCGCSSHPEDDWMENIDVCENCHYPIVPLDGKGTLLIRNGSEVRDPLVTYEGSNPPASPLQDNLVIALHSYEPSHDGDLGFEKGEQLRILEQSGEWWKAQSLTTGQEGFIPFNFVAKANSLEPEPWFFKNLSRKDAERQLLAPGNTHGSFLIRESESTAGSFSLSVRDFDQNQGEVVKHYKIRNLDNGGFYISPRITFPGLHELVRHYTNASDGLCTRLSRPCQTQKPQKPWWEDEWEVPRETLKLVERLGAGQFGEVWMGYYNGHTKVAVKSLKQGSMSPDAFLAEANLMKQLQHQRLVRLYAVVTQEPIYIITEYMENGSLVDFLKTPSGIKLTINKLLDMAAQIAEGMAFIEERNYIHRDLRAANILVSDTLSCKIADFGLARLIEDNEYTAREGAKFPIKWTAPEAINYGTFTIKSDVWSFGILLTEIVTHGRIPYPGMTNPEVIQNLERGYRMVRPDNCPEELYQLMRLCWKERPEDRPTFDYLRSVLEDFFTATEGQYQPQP

| Compound | IC50 [1] | IC50 (T-cell) | also measured |
| --- | --- | --- | --- |
| Cc1cc(C)c(NC(=O)c2cnc(Nc3cnccn3)s2)c(C)c1 | 4.9 nM | 500 nM |  |
| Cc1cccc(Cl)c1NC(=O)c1cnc(Nc2cc(N3CCOCC3)ncn2)s1 | 0.5 nM | 3 nM |  |
| Cc1cnc(Nc2ncc(C(=O)Nc3c(C)cccc3Cl)s2)c(C)n1 | 6.3 nM | 570 nM |  |
| Cc1cc(C)c(NC(=O)c2sc(NC(=O)NCc3ccccc3)nc2C)c(C)c1 | 130 nM |  | IC50 [2]: 100 nM |
| Cc1nc(Nc2ncc(C(=O)Nc3c(C)cccc3Cl)s2)cc(N2CCOCC2)n1 | 1.3 nM | 5 nM |  |
| Cc1cccc(C)c1NC(=O)c1cnc(Nc2ccccn2)s1 | 1.2 nM | 180 nM |  |
| Cc1cc(C)c(NC(=O)c2sc(NC(=O)NC(C)(C)C)nc2C)c(C)c1 | 1300 nM |  |  |
| Cc1nc(NCCCN2CCOCC2)cc(Nc2ncc(C(=O)Nc3c(C)cccc3Cl)s2)n1 | 0.7 nM | 7 nM |  |
| Cc1nc(NC(=O)OC(C)(C)C)sc1C(=O)Nc1ccccc1 |  |  | inhibition [3]: 28% |
| Cc1cc(Nc2ncc(C(=O)Nc3c(C)cccc3Cl)s2)nc(C)n1 | 1 nM | 80 nM | IC50 [4]: 2 nM; IC50 [5]: < 2 nM; inhibition in vivo at 60 mg/kg (Mus musculus [6]): 90%; IC50 [7]: 0.8 nM; IC50 [8]: 4 nM; ED50 (Mus musculus [9]): 5 mg/kg; IC50 [10]: 500 nM; IC50 (PBMC): 670 nM; Vss (Rattus norvegicus): 12 L/kg; IC50 [11]: > 10 µM; Ki [2]: 0.13 nM |
| Cc1nc(Nc2ncc(C(=O)Nc3c(C)cccc3Cl)s2)cc(N2CCC(CO)CC2)n1 | 0.7 nM | 4 nM |  |
| Cc1cc(C)c(NC(=O)c2sc(NC(=O)OCc3ccccc3)nc2C)c(C)c1 |  |  | IC50 [2]: 33300 nM |
| Cc1cc(C)nc(Nc2ncc(C(=O)Nc3c(C)cccc3Cl)s2)c1 | 4 nM | 140 nM |  |
| Cc1cc(C)c(NC(=O)c2cnc(Nc3ccccn3)s2)c(C)c1 | 5 nM | 510 nM |  |
| Cc1cccc(C)c1NC(=O)c1cnc(Nc2cccnn2)s1 | 0.3 nM | 350 nM |  |
| Cc1cccc(Cl)c1NC(=O)c1cnc(Nc2cccc(NCCO)n2)s1 | < 0.2 nM | 75 nM |  |
| Cc1cc(C)nc(Nc2ncc(C(=O)Nc3c(C)cccc3Cl)s2)n1 | 50 nM |  |  |
| Cc1cc(C)c(NC(=O)c2sc(NC(=O)c3ccsc3)nc2C)c(C)c1 | 180 nM |  |  |
| Cc1cccc(Cl)c1NC(=O)c1cnc(NC(=O)C2CC2)s1 |  | 884 nM |  |
| Cc1cc(C)c(NC(=O)c2cnc(Nc3cc(C)nc(C)n3)s2)c(C)c1 | 3 nM | 140 nM |  |
| Cc1cccc(Cl)c1NC(=O)c1cnc(Nc2cccnn2)s1 | 4 nM | 350 nM |  |

| Compound | IC50 [1] | IC50 (T-cell) | also measured |
| --- | --- | --- | --- |
| Cc1cccc(Cl)c1NC(=O)c1cnc(Nc2ccncc2)s1 | 9.4 nM | 270 nM |  |
| Cc1cc(C)c(NC(=O)c2sc(NC(=O)C(C)(C)C)nc2C)c(C)c1 | 12100 nM |  |  |
| Cc1cccc(Cl)c1NC(=O)c1cnc(NC(=O)c2ccsc2)s1 | 17 nM | > 2000 nM |  |
| Cc1nc(NCCO)cc(Nc2ncc(C(=O)Nc3c(C)cccc3Cl)s2)n1 | 0.2 nM | 23 nM |  |
| Cc1cc(C)c(NC(=O)c2sc(N)nc2C)c(C)c1 |  | > 10000 nM |  |
| Cc1ccc(NC(=O)c2sc(NC(=O)OC(C)(C)C)nc2C)c(C)c1 |  |  | IC50 [2]: 27400 nM |
| Cc1cccc(Cl)c1NC(=O)c1sc(NC(=O)c2ccsc2)nc1C | 390 nM |  |  |
| Cc1cccc(Cl)c1NC(=O)c1cnc(Nc2cccc(NCCCN3CCOCC3)n2)s1 | 0.5 nM | 8 nM |  |
| Cc1cccc(Cl)c1NC(=O)c1cnc(Nc2ccccn2)s1 | 1.2 nM | 140 nM |  |
| Cc1cccc(Cl)c1NC(=O)c1sc(NC(=O)c2cccs2)nc1C | 130 nM |  |  |
| CC(=O)Nc1nc(C)c(C(=O)Nc2c(C)cc(C)cc2C)s1 | 480 nM |  | IC50 [2]: 510 nM |
| Cc1cccc(Cl)c1NC(=O)c1cnc(NC(=O)C2CCCC2)s1 | 1340 nM |  |  |
| Cc1cc(C)c(NC(=O)c2sc(NC(=O)Nc3ccccc3)nc2C)c(C)c1 | 160 nM |  | IC50 [2]: 90 nM |
| Cc1ccnc(Nc2ncc(C(=O)Nc3c(C)cccc3Cl)s2)c1 | 0.5 nM | 80 nM |  |
| Cc1cc(C)c(NC(=O)c2sc(NC(=O)c3ccoc3)nc2C)c(C)c1 | 1200 nM |  |  |
| Cc1cccc(Cl)c1NC(=O)c1cnc(Nc2cccnc2)s1 | 6.7 nM | 870 nM |  |
| Cc1cccc(Cl)c1NC(=O)c1cnc(NC(=O)c2cccs2)s1 | 2230 nM |  |  |
| Cc1nc(Nc2ncc(C(=O)Nc3c(C)cccc3Cl)s2)cc(N2CCN(CCO)CC2)n1 [DASATINIB] |  | 3 nM |  |
| Cc1cccc(Nc2ncc(C(=O)Nc3c(C)cccc3Cl)s2)n1 | 0.6 nM | 110 nM |  |
| Cc1cccc(Cl)c1NC(=O)c1cnc(Nc2cccc(NCCCn3ccnc3)n2)s1 | < 0.5 nM | 2 nM |  |
